ChEMBL document CHEMBL4339241, “Meroterpenoids with BACE1 Inhibitory Activity from the Fruiting Body of Boletinus asiaticus” (J Nat Prod, 2019)

biological target: Beta-secretase 1 (Homo sapiens, UniProt P56817); test: Inhibition of BACE1 (unknown origin) using Rh-EVNNLDAEFK-Quencher substrate incubated for 3 hrs by FRET assay
Sequence (P56817 whole entry): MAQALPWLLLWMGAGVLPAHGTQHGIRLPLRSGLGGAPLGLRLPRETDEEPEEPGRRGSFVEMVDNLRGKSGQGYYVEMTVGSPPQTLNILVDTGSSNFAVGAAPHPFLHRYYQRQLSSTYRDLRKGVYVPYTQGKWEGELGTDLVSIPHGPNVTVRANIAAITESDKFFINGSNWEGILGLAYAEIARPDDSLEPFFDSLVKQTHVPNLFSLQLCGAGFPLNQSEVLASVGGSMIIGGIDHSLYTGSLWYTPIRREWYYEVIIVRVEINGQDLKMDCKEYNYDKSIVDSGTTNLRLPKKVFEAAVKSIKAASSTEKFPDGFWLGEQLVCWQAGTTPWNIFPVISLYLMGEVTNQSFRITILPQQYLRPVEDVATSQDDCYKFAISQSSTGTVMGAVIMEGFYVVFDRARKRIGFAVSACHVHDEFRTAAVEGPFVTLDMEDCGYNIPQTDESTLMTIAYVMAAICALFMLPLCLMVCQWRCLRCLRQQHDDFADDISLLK

| IC50 [µM] | SMILES |
| --- | --- |
| 2 | C/C(=C\CC/C(C)=C/Cc1cc(C(=O)O)ccc1O)CC/C=C(\C)CC/C=C(\C)C(=O)O |
| 14.7 | C=C(CC/C=C(\C)CC/C=C(\C)C(=O)O)C(O)CC/C(C)=C/Cc1cc(C(=O)O)ccc1O (racemic) |
| 11.4 | C/C(=C\CC/C(C)=C/CCC1(C)C=Cc2cc(C(=O)O)ccc2O1)CC/C=C(\C)C(=O)O (racemic) |
